Structures can show the parent of a compound that is named as a salt. Where two headings read alike, the source gives them in different places.
Tests used:
dopamine D-2 receptor = dopamine D-2 receptor (Rattus norvegicus, UniProt P61169); assay: biochemical; format: binding
Experimental: Homogenized rat caudate was the source of the D-2 receptors. […] The molar affinity of the compound for the receptor binding site was calculated by the same method used for the D-1 receptor assay, assuming a competitive interaction between the compound and the radiolabeled ligand.

dopamine D-1 receptor = settings: for Intrinsic Activity (adenylate cyclase assay): dopamine = 100, goldfish retina or rat striatum
Experimental: In order to determine agonist activity, cell-free tissue homogenates are incubated in an ionic buffer solution containing ATP and the compound being evaluated. The tissue was obtained from either goldfish retina or rat striatum.

[1] = rat caudate, [125I]-p-aminophenylethyl spiroperidol, read-out: D-2 Ki

dopamine D-2 receptor, sequence (P61169 whole entry): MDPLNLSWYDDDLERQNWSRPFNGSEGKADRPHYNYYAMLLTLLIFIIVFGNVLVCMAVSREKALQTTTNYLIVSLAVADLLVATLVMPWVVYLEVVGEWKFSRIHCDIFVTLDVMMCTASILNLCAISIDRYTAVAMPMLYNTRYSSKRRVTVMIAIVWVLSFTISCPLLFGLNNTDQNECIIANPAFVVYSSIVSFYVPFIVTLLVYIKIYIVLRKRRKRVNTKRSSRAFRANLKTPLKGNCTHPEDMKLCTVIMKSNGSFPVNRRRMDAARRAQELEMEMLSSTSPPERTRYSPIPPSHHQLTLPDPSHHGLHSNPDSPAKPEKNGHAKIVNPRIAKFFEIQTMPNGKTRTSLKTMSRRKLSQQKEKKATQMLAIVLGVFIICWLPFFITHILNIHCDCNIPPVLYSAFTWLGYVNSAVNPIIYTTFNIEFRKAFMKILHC

Row | Structure (SMILES) | Ki (dopamine D-2 receptor; [1]) [nM] | Intrinsic Activity (adenylate cyclase assay) (dopamine D-1 receptor) | further results
1 | CC(C)(C)[C@H]1Cc2c(ccc(O)c2O)[C@@H](CN)O1 (relative stereo) [Example 48, [1,3-cis]1-Aminomethyl 3-t-butyl-5,6-dihydroxy-3,4-dihydro-1H-2-benzopyran Hydrochloride] | 13000 | 112 | –
2 | NC[C@H]1O[C@@H](c2ccccc2)Cc2c1ccc(O)c2O (relative stereo) [Example 49] | 1000 | – | –
3 | NC[C@H]1O[C@@H](C2CCCCC2)Cc2c1ccc(O)c2O (relative stereo) [Example 50] | – | – | Ki (dopamine D-2 receptor; D-2 Ki): 1200 nM
4 | C=CCCCC[C@@H]1Cc2c(ccc(O)c2O)[C@H](CN)O1 (relative stereo) [Example 66] | 640 | 84 | –
5 | NC[C@@H]1O[C@H](c2cccc(O)c2)Cc2c1ccc(O)c2O (relative stereo) [Example 70] | 650 | – | –
6 | NC[C@@H]1O[C@H](C(c2ccccc2)c2ccccc2)Cc2c1ccc(O)c2O (relative stereo) [Example 71] | 2800 | – | –
7 | NC[C@@H]1O[C@H](C2CCCCCCC2)Cc2c1ccc(O)c2O (relative stereo) [Example 76] | 440 | – | –
8 | CC(C)(C)[C@H]1Cc2c(ccc(O)c2O)[C@@H](CN)O1 (relative stereo) [Example 100] | 54000 | – | –
9 | C=CC[C@H]1Cc2c(ccc(O)c2O)[C@@H](CN)O1 (relative stereo) [Example 101] | – | 119 | –
10 | NC[C@H]1O[C@@H](C23CC4CC(CC(C4)C2)C3)Cc2c1cc(F)c(O)c2O (relative stereo) [Example 106] | > 10000 | 65 | –
11 | C#CC[C@H]1Cc2c(ccc(O)c2O)[C@@H](CN)O1 (relative stereo) [Example 110, [1,3-cis]1-Aminomethyl-5,6-dihydroxy-3-(3'-prop-1'-ynyl)-3,4-dihydro-1H-2-benzopyran Hydrochloride] | 1100 | – | –
12 | CNC[C@H]1O[C@@H](C2CCCCC2)Cc2c1ccc(O)c2O (relative stereo) [Example 111, [1,3-cis]3-Cyclohexyl-5,6-dihydroxy-1-methylaminomethyl-3,4-dihydro-1H-2-benzopyran Hydrochloride] | 720 | – | –
13 | C#CCN(C)C[C@H]1O[C@@H](C2CCCCC2)Cc2c1ccc(O)c2O (relative stereo) [Example 119] | > 10000 | – | –
14 | C=CCN(C)C[C@H]1O[C@@H](C2CCCCC2)Cc2c1ccc(O)c2O (relative stereo) [Example 120] | 3000 | – | –
15 | C=CCN(C)C[C@H]1O[C@@H](CCCCCC)Cc2c1ccc(O)c2O (relative stereo) [Example 121] | – | 51 | EC50 (dopamine D-1 receptor; read-out: EC50 (agonist activity in adenylate cyclase assay), tissue from goldfish retina or rat striatum): 21000 nM
16 | CCCCC[C@H]1Cc2c(ccc(O)c2O)[C@@H](CNC)O1 (relative stereo) [Example 144] | 91 | 107 | –
17 | Br.N[C@@H]1CCc2cc(O)c(O)c3c2[C@H]1C[C@H](c1ccccc1)C3 (relative stereo) [Example 182, [1R*,8S*,9aR*]1-Amino-5,6-dihydroxy-8-phenyl-2,3,7,8,9,9a-hexahydro-phenalene Hydrobromide] | 2200 | 65 | –
18 | Br.N[C@H]1CCc2cc(O)c(O)c3c2[C@H]1C[C@H](c1ccccc1)C3 (relative stereo) [Example 183, [1S*,8S*,9aR*]1-Amino-5,6-dihydroxy-8-phenyl-2,3,7,8,9,9a-hexahydrophenalene Hydrobromide] | > 10000 | 56 | –
19 | NC[C@@H]1O[C@H](c2ccccc2)Cc2c1ccc(O)c2O [Example 54] | 910 | – | –
20 | COc1ccc(CC2Cc3c(ccc(O)c3O)C(CN)O2)cc1 (stereo not drawn) [Example 83] | 4500 | – | –
21 | NCC1OC(c2ccccc2)Cc2c1ccc(O)c2O (stereo not drawn) [Example 96] | 870 | – | –
22 | CC(=O)NCC1=CC(c2ccccc2)Cc2c1ccc(O)c2O (stereo not drawn) [Example 213, 1-Acetylaminomethyl-3-phenyl-5,6-dihydroxy-3,4-dihydronaphthalene] | – | 70 | –
23 | Oc1ccc2c(c1O)CC1(CCCCCC1)C1CCNCC21 (stereo not drawn) [Example 252] | – | 49 | –

Reference: patent US5621133A (priority 1995, dated 1997)
